# Experimental data reported in article PMC11024869, “The activity of antimicrobial peptoids against multidrug-resistant ocular pathogens” (Contact lens & anterior eye : the journal of the British …, 2024).
# Several values for one entry are separate records, joined by “and”; a condition that tells them apart may be missing. Equal entries are not always repeated. Where two headings read alike, the source gives them in different places. Non-standard residues stand in square brackets, D forms with d. Residues, ends and D or L forms follow the SMILES beside them. Nspe(4-Br) = C[C@H](NCC(=O)O)c1ccc(Br)cc1; Nspe = C[C@H](NCC(=O)O)c1ccccc1; Nlys = NCCCCNCC(=O)O
# Experiments:
# Type in all cases: cell-based
# [1] = test system: Pseudomonas aeruginosa PA216
# Source text: (§3) The S. pneumoniae strains used were SP04, SP06 and SP07 [46] and Streptococcus gallolyticus SV06 (all isolated from eyes of contact lens wearers during adverse events); P. aeruginosa PAO1 (which was originally isolated from a wound, and is an invasive strain containing the gene exoS) as well as isolates from microbial keratitis, PA 235 (invasive strain containing exoS), PA216 (a cytotoxic strain containing exoU), PA219 (cytotoxic strain containing exoU), PA 233 (cytotoxic strain containing exoU), with various susceptibilities to antibiotics were also used [14]. C. albicans ATCC 10231, a yeast, isolated from case of a human bronchomycosis, was also evaluated.
# (§4) The peptoids’ minimum inhibitory and bactericidal concentrations (MIC and MBC) were determined using micro broth dilution methods as previously described with slight modifications, [26, 39, 49, 50], and without using acetic acid and bovine serum albumin [39]. Briefly, bacteria or yeast were suspended in Muller Hinton broth (MHB, Oxoid, Thermo Fisher Scientific, Thebarton, SA, Australia) at 0.1 OD660nm, which was equivalent to 1x10^8 colony forming units (CFU) mL^−1. This suspension was further diluted to achieve 5x10^6 CFU mL^−1. The peptoids were diluted in MHB from 250 to 0.24 μg mL^−1 in 96-well polystyrene microplates (COSTAR, Corning Incorporated, New York, NY, USA) [39]. […] This was followed by addition of 100 μL of each microbial suspensions. Wells with only bacteria or the yeast were treated as a negative control, and wells with only MHB medium were treated as a blank. The plates were incubated at 37 °C with shaking at 120 rpm for 24 h. After incubation, the media in each well was serially diluted in phosphate buffered solution and then inoculated onto tryptone soya agar (Oxoid) plates for bacteria, or Sabouraud’s dextrose agar for the yeast, and incubated at 37 °C for 18 hrs. Post incubation, the number of CFUs on the agar plates was counted.
# [2] = test system: Pseudomonas aeruginosa PA235
# Source text: as §3, §4
# [3] = test system: Streptococcus gallolyticus SG04
# Source text: as §3, §4
# horse erythrocytes = assay: In vitro assay for hemolysis, horse blood; conditions: for TI horse blood (ratio HC50 to geometric mean MIC): therapeutic index
# Description: (§1) Hemolysis caused by the peptoids was measured using 18 to 20 mL of a horse or human blood collected in EDTA-coated tubes which has been centrifuged at 500×g for 5 min. The supernatant was discarded and the pellet containing the cells were resuspended in PBS to a final volume of 20 mL. This step was repeated five times. After the final wash, the pellet was resuspended in PBS at the ratio of 1:10 (1 mL red blood cell: 9 mL PBS) to yield a final red blood cell (RBC) concentration of approximately 5 × 10^8 cells mL^−1. The concentration of RBCs was confirmed using a hemocytometer. The peptoids (stock concentration 2 mM) were diluted sequentially (two-fold dilutions) in PBS to final concentrations of […]. All the dilutions were subsequently mixed with the RBC suspension at the ratio of 1:1. MilliQ water was used as a positive control and PBS was used as a negative control in this assay. All samples were incubated at 37 °C for 3 h. Following incubation, the tubes were centrifuged at 500 x g for five mins, the supernatants were collected, transferred to wells in a 96 well plate and their optical density was measured at 540 nm. The percentage of hemolysis was calculated by dividing the absorbance of the test sample by the absorbance of the positive control, and multiplying by 100. Data are presented as the hemolysis caused by each dilution of peptoid, and as the concentration of peptoid that caused 10 % or 50 % lysis of red blood cells.
# (§2) The geometric mean is the nth root of the multiplied numbers, where n is the total number of data values. A similar formula was used to calculate the selectivity ratio, but by using the concentration of peptoid that caused 10 % hemolysis.
# [4] = test system: Pseudomonas aeruginosa PA219
# Source text: as §3, §4
# [5] = test system: viridans group streptococcus SV06
# Source text: as §3, §4
# [6] = test system: Staphylococcus aureus SA34
# Source text: as §3, §4
# [7] = test system: Candida albicans ATCC 10231; assay: MIC/MBC (fungicidal) micro broth dilution; conditions: ATCC 10231 (yeast), MHB, 24 h 37 °C; for MBC (minimum fungicidal concentration): ≥99.99 % reduction in CFUs
# Source text: as §3, §4
# human erythrocytes = assay: In vitro assay for hemolysis, human blood; conditions: for TI human blood (ratio HC50 to geometric mean MIC): therapeutic index
# Description: as §1, §2
# [8] = test system: Pseudomonas aeruginosa PAO1
# Source text: as §3, §4
# [9] = test system: Streptococcus pneumoniae SP07
# Source text: as §3, §4
# [10] = test system: Staphylococcus aureus SA65
# Source text: as §3, §4
# [11] = test system: Pseudomonas aeruginosa PA233
# Source text: All S. aureus strains used were isolated from cases of microbial keratitis (Table 1) with various susceptibilities to antibiotics. The S. pneumoniae strains used were SP04, SP06 and SP07 [46] and Streptococcus gallolyticus SV06 (all isolated from eyes of contact lens wearers during adverse events); P. aeruginosa PAO1 (which was originally isolated from a wound, and is an invasive strain containing the gene exoS) as well as isolates from microbial keratitis, PA 235 (invasive strain containing exoS), PA216 (a cytotoxic strain containing exoU), PA219 (cytotoxic strain containing exoU), PA 233 (cytotoxic strain containing exoU), with various susceptibilities to antibiotics were also used. C. albicans ATCC 10231, a yeast, isolated from case of a human bronchomycosis, was also evaluated.
# The peptoids’ minimum inhibitory and bactericidal concentrations (MIC and MBC) were determined using micro broth dilution methods as previously described with slight modifications, [26, 39, 49, 50], and without using acetic acid and bovine serum albumin [39]. Briefly, bacteria or yeast were suspended in Muller Hinton broth (MHB, Oxoid, Thermo Fisher Scientific, Thebarton, SA, Australia) at 0.1 OD660nm, which was equivalent to 1x10^8 colony forming units (CFU) mL^−1. This suspension was further diluted to achieve 5x10^6 CFU mL^−1. The peptoids were diluted in MHB from 250 to 0.24 μg mL^−1 in 96-well polystyrene microplates (COSTAR, Corning Incorporated, New York, NY, USA). This range was selected to cover the range of MIC values previously reported for ESKAPE pathogens. This was followed by addition of 100 μL of each microbial suspensions. Wells with only bacteria or the yeast were treated as a negative control, and wells with only MHB medium were treated as a blank. The plates were incubated at 37 °C with shaking at 120 rpm for 24 h. After incubation, the media in each well was serially diluted in phosphate buffered solution and then inoculated onto tryptone soya agar (Oxoid) plates for bacteria, or Sabouraud’s dextrose agar for the yeast, and incubated at 37 °C for 18 hrs. Post incubation, the number of CFUs on the agar plates was counted.
# [12] = test system: Staphylococcus aureus SA113
# Source text: as §3, §4
# [13] = test system: Staphylococcus aureus SA117
# Source text: as §3, §4
# [14] = test system: Streptococcus pneumoniae SP04
# Source text: as §3, §4
# [15] = test system: Staphylococcus aureus SA114
# Source text: as §3, §4
# [16] = test system: Streptococcus pneumoniae SP06
# Source text: as §3, §4
# tested bacteria = assay: Geometric mean of MIC of the tested bacteria; conditions: nth root of the multiplied MICs of the tested bacteria
# Source text: as §2
compound,measurement,setting,value
C[C@@H](c1ccccc1)N(CC(N)=O)C(=O)CN(C(=O)CN(CCCCN)C(=O)CN(C(=O)CN(C(=O)CN(CCCCN)C(=O)CN(C(=O)CN(C(=O)CN(CCCCN)C(=O)CN(C(=O)CN(C(=O)CNCCCCN)[C@@H](C)c1ccccc1)[C@@H](C)c1ccccc1)[C@@H](C)c1ccccc1)[C@@H](C)c1ccccc1)[C@@H](C)c1ccccc1)[C@@H](C)c1ccccc1)[C@@H](C)c1ccccc1 [TM1] (H-[Nlys][Nspe][Nspe][Nlys][Nspe][Nspe][Nlys][Nspe][Nspe][Nlys][Nspe][Nspe]-NH2),MIC,"[1]; PA216, MHB, 24 h 37 °C, ≥90 % reduction in CFUs",15 µg/mL
same,MBC,"[1]; PA216, MHB, 24 h 37 °C, ≥99.99 % reduction in CFUs",31 µg/mL
same,MBC,"[2]; PA235, MHB, 24 h 37 °C, ≥99.99 % reduction in CFUs",31(17)/31(17) μg mL^−1
same,MIC,"[3]; SG04, MHB, 24 h 37 °C, ≥90 % reduction in CFUs",3.9 µg/mL
same,MBC,"[3]; SG04, MHB, 24 h 37 °C, ≥99.99 % reduction in CFUs",7.8 µg/mL
same,Horse HC10,"horse erythrocytes; concentration causing 10 % lysis of horse red blood cells, PBS, 3 h 37 °C, OD 540 nm",4 µM
same,Horse HC50,"horse erythrocytes; concentration causing 50 % lysis of horse red blood cells, PBS, 3 h 37 °C, OD 540 nm",45 µM
same,SR horse blood (ratio HC10 to geometric mean MIC),horse erythrocytes; selectivity ratio,1
same,TI horse blood (ratio HC50 to geometric mean MIC),horse erythrocytes,11
same,MIC,"[4]; PA219, MHB, 24 h 37 °C, ≥90 % reduction in CFUs",15 µg/mL
same,MBC,"[4]; PA219, MHB, 24 h 37 °C, ≥99.99 % reduction in CFUs",31 µg/mL
same,MIC,"[5]; SV06, MHB, 24 h 37 °C, ≥90 % reduction in CFUs",3.9 µg/mL
same,MBC,"[5]; SV06, MHB, 24 h 37 °C, ≥99.99 % reduction in CFUs",7.8 µg/mL
same,MIC,"[6]; SA34, MHB, 24 h 37 °C, ≥90 % reduction in CFUs",7.8 µg/mL
same,MBC,"[6]; SA34, MHB, 24 h 37 °C, ≥99.99 % reduction in CFUs",15 µg/mL
same,MBC (minimum fungicidal concentration),[7],3.9(2.2)/3.9(2.2) μg mL^−1
same,Human HC10,"human erythrocytes; concentration causing 10 % lysis of human red blood cells, PBS, 3 h 37 °C, OD 540 nm",8 µM
same,Human HC50,"human erythrocytes; concentration causing 50 % lysis of human red blood cells, PBS, 3 h 37 °C, OD 540 nm",49 µM
same,SR human blood (ratio HC10 to geometric mean MIC),human erythrocytes; selectivity ratio,2
same,TI human blood (ratio HC50 to geometric mean MIC),human erythrocytes,12
same,MIC,"[8]; PAO1, MHB, 5x10^6 CFU mL^−1, 24 h 37 °C, ≥90 % reduction in CFUs",7.8 µg/mL
same,MBC,"[8]; PAO1, MHB, 24 h 37 °C, ≥99.99 % reduction in CFUs",15 µg/mL
same,MIC,"[9]; SP07, MHB, 24 h 37 °C, ≥90 % reduction in CFUs",15(8.6)/15(8.6) μg mL^−1
same,MBC,"[9]; SP07, MHB, 24 h 37 °C, ≥99.99 % reduction in CFUs",15(8.6)/15(8.6) μg mL^−1
same,MIC,"[10]; SA65, MHB, 24 h 37 °C, ≥90 % reduction in CFUs",3.9(2.2)/3.9(2.2) μg mL^−1
same,MBC,"[10]; SA65, MHB, 24 h 37 °C, ≥99.99 % reduction in CFUs",3.9(2.2)/3.9(2.2) μg mL^−1
same,MIC,"[11]; PA233, MHB, 24 h 37 °C, ≥90 % reduction in CFUs",15(8.6)/15(8.6) μg mL^−1
same,MBC,"[11]; PA233, MHB, 24 h 37 °C, ≥99.99 % reduction in CFUs",15(8.6)/15(8.6) μg mL^−1
same,MIC,"[12]; SA113, MHB, 24 h 37 °C, ≥90 % reduction in CFUs",3.9 µg/mL
same,MBC,"[12]; SA113, MHB, 24 h 37 °C, ≥99.99 % reduction in CFUs",7.8 µg/mL
same,MIC,"[13]; SA117, MHB, 24 h 37 °C, ≥90 % reduction in CFUs",7.8 µg/mL
same,MBC,"[13]; SA117, MHB, 24 h 37 °C, ≥99.99 % reduction in CFUs",15 µg/mL
same,MIC,"[14]; SP04, MHB, 24 h 37 °C, ≥90 % reduction in CFUs",1.9(1.1)/1.9(1.1) μg mL^−1
same,MBC,"[14]; SP04, MHB, 24 h 37 °C, ≥99.99 % reduction in CFUs",1.9(1.1)/1.9(1.1) μg mL^−1
same,MIC,"[15]; SA114, MHB, 24 h 37 °C, ≥90 % reduction in CFUs",7.8(4.3)/7.8(4.3) μg mL^−1
same,MBC,"[15]; SA114, MHB, 24 h 37 °C, ≥99.99 % reduction in CFUs",7.8(4.3)/7.8(4.3) μg mL^−1
same,MIC,"[16]; SP06, MHB, 24 h 37 °C, ≥90 % reduction in CFUs",3.9 µg/mL
same,MBC,"[16]; SP06, MHB, 24 h 37 °C, ≥99.99 % reduction in CFUs",7.8 µg/mL
C[C@@H](c1ccc(Br)cc1)N(CC(=O)N(CCCCN)CC(=O)N(CC(=O)N(CC(=O)N(CCCCN)CC(N)=O)[C@@H](C)c1ccc(Br)cc1)[C@@H](C)c1ccc(Br)cc1)C(=O)CN(C(=O)CNCCCCN)[C@@H](C)c1ccc(Br)cc1 [TM14] (H-[Nlys][Nspe(4-Br)][Nspe(4-Br)][Nlys][Nspe(4-Br)][Nspe(4-Br)][Nlys]-NH2),MBC,"[1]; PA216, 24 h",15 µg/mL
same,MIC,"[1]; PA216, 24 h",7.8 µg/mL
same,MBC,"[2]; PA235, 24 h",31 µg/mL
same,MIC,"[2]; PA235, 24 h",15 µg/mL
same,MBC,[3]; 24 h,15(11)/15(11) μg mL^−1
same,MIC,[3]; 24 h,15(11)/15(11) μg mL^−1
same,SR horse blood (ratio HC10 to geometric mean MIC),horse erythrocytes,0.8
same,Horse HC10,"horse erythrocytes; red cells of horse, 3 h",3 µM
same,Horse HC50,"horse erythrocytes; red cells of horse, 3 h",45 µM
same,TI horse blood (ratio HC50 to geometric mean MIC),horse erythrocytes,11
same,MBC,"[4]; PA219, 24 h",15(11)/15(11) μg mL^−1
same,MIC,"[4]; PA219, 24 h",15(11)/15(11) μg mL^−1
same,MBC,[5]; 24 h,15(11)/15(11) μg mL^−1
same,MIC,[5]; 24 h,15(11)/15(11) μg mL^−1
same,MBC,"[6]; SA34, 24 h",3.9(2.9)/3.9(2.9) μg mL^−1
same,MIC,"[6]; SA34, 24 h",3.9(2.9)/3.9(2.9) μg mL^−1
same,MIC,[7]; ≥90 % reduction in CFUs,3.9(2.8)/3.9(2.8) μg mL^−1
same,MBC (minimum fungicidal concentration),[7],3.9(2.8)/3.9(2.8) μg mL^−1
same,SR human blood (ratio HC10 to geometric mean MIC),human erythrocytes,2
same,Human HC10,"human erythrocytes; red cells of human, 3 h",8 µM
same,Human HC50,"human erythrocytes; red cells of human, 3 h",90 µM
same,TI human blood (ratio HC50 to geometric mean MIC),human erythrocytes,23
same,MBC,"[8]; PAO1, 24 h",15 µg/mL
same,MIC,"[8]; PAO1, 24 h",7.8 µg/mL
same,Geometric mean of MIC,tested bacteria,4.0 µM and 4 µM
same,MBC,"[9]; SP07, 24 h",15(11)/15(11) μg mL^−1
same,MIC,"[9]; SP07, 24 h",15(11)/15(11) μg mL^−1
same,MBC,"[10]; SA65, 24 h",1.9(1.4)/1.9(1.4) μg mL^−1
same,MIC,"[10]; SA65, 24 h",1.9(1.4)/1.9(1.4) μg mL^−1
same,MBC,"[11]; PA233, 24 h",31 µg/mL
same,MIC,"[11]; PA233, 24 h",15 µg/mL
same,MBC,"[12]; SA113, 24 h",3.9 µg/mL
same,MIC,"[12]; SA113, 24 h",1.9 µg/mL
same,MBC,"[13]; SA117, 24 h",3.9(2.9)/3.9(2.9) μg mL^−1
same,MIC,"[13]; SA117, 24 h",3.9(2.9)/3.9(2.9) μg mL^−1
same,MBC,"[14]; SP04, 24 h",15(11)/15(15) μg mL^−1
same,MIC,"[14]; SP04, 24 h",15(11)/15(15) μg mL^−1
same,MBC,"[15]; SA114, 24 h",1.9(1.4)/1.9(1.4) μg mL^−1
same,MIC,"[15]; SA114, 24 h",1.9(1.4)/1.9(1.4) μg mL^−1
same,MBC,"[16]; SP06, 24 h",1.9(1.4)/1.9(1.4) μg mL^−1
same,MIC,"[16]; SP06, 24 h",1.9(1.4)/1.9(1.4) μg mL^−1
